Consider 8 compounds from DBAASP.

Molecules are shown by their SMILES. ≈ marks a conversion by molar mass, not a printed value.

Test systems include Escherichia coli UB1005; Escherichia coli K88; Escherichia coli 1005; Candida albicans.
Holding throughout (experiment): ≥ marks a high value that may be exact or a test limit, other limits are often not marked, values filed in µg/mL are converted to µM
Assay [1] relates to Salmonella typhimurium ATCC 7731.
The test system of assay [2] is Staphylococcus aureus ATCC 43300.
Assay [3] has as its system Staphylococcus epidermidis ATCC 12228.
Assay [4] has as its system Enterococcus faecalis ATCC 29212.
Assay [5] has as its system Pseudomonas aeruginosa ATCC 27853.
In assay [6] the test system is Staphylococcus aureus ATCC 29213.
Assay [7] relates to Escherichia coli ATCC 25922.
Assay [8] relates to Salmonella enterica subsp. enterica serovar Pullorum C79-13.
In assay [9] the test system is Bacillus subtilis CMCC 63501.
Assay [10] deals with Cryptococcus neoformans ATCC 32045.
Assay [11] relates to Pseudomonas aeruginosa ATCC 10145.
The subject of assay [12] is Candida albicans ATCC 10231.
The subject of assay [13] is Staphylococcus aureus ATCC 33591.
The subject of assay [14] is Escherichia coli ATCC 2592.
Assay [15] relates to Lacticaseibacillus rhamnosus 1.0936.
For assay [16], the system named is Salmonella enterica subsp. enterica serovar Choleraesuis CVCC 503.
For assay [17], the system named is Lacticaseibacillus rhamnosus 8014.
The subject of assay [18] is Streptococcus agalactiae BNCC 185941.
Assay [19] concerns Escherichia coli O157:H7 CICC 21530.
The test system of assay [20] is Pseudomonas aeruginosa PAO1.
Assay [21] has as its system Lacticaseibacillus rhamnosus 1.9021.
Assay [22] deals with Salmonella enterica subsp. enterica serovar Typhimurium ATCC 14028.
In assay [23] the test system is Lacticaseibacillus rhamnosus 1.0911.
Assay [24] relates to Staphylococcus aureus ATCC 25923.
Assay [25] relates to Candida albicans NCTC 3179.
In assay [26] the test system is Candida tropicalis CGMCC 2.1975.
For assay [27], the system named is Candida parapsilosis CGMCC 2.3989.
In assay [28] the test system is Candida krusei CGMCC 2.1857.
The subject of assay [29] is Salmonella enterica subsp. enterica serovar Pullorum ATCC 7913.

Usually MIC stands for the smallest concentration in the dilution series that meets the test's criterion for growth inhibition. Read a low MIC as a more susceptible organism. For `CC[C@H](C)[C@H](N)C(=O)N[C@@H](Cc1cnc[nH]1)C(=O)N[C@@H](CCCCN)C(=O)N[C@@H](Cc1ccccc1)C(=O)N[C@@H](Cc1c[nH]c2ccccc12)C(=O)N[C@@H](CCCN=C(N)N)C(=O)N[C@@H](CCCN=C(N)N)C(=O)N[C@@H](Cc1c[nH]c2ccccc12)C(=O)N[C@@H](Cc1ccccc1)C(=O)N[C@@H](CCCCN)C(=O)N[C@@H](Cc1cnc[nH]1)C(=O)N[C@H](C(N)=O)[C@@H](C)CC` [IHKFWRRWFKHI], the MIC in assay [1] is 16 µM (≈ 28.1 µg/mL); in [2], 16 µM (≈ 28.1 µg/mL); in assay [3], 16 µM (≈ 28.1 µg/mL); in assay [4], 16 µM (≈ 28.1 µg/mL); in assay [5], 16 µM (≈ 28.1 µg/mL); in assay [6] it was 8 µM (≈ 14 µg/mL). Also, the minimal inhibitory concentration (MIC) in [7] was 16 µM (≈ 28.1 µg/mL); in assay [8], 16 µM (≈ 28.1 µg/mL); in assay [9], at least 32 µM; with Escherichia coli UB1005, 8 µM (≈ 14 µg/mL).

With `C[C@H](NC(=O)[C@H](Cc1ccccc1)NC(=O)[C@@H](N)CCCCN)C(=O)N[C@@H](CCCCN)C(=O)O` [KFAK], the minimal inhibitory concentration (MIC) in assay [10] is at least 1010 µM; in assay [11] it was at least 1010 µM; in [12], over 1010 µM; in assay [13] it was at least 1010 µM; in assay [14], at least 507 µM.

Turning to `C[C@H](NC(=O)[C@H](CCCCN)NC(=O)[C@H](CCCCN)NC(=O)[C@H](CCCCN)NC(=O)[C@H](C)NC(=O)[C@H](CCCCN)NC(=O)[C@H](CCCCN)NC(=O)[C@H](CCCCN)NC(=O)[C@H](C)NC(=O)[C@H](CCCCN)NC(=O)[C@H](CCCCN)NC(=O)[C@H](CCCCN)NC(=O)[C@H](C)NC(=O)[C@H](CCCCN)NC(=O)[C@H](CCCCN)NC(=O)[C@H](CCCCN)NC(=O)[C@H](C)NC(=O)[C@H](CCCCN)NC(=O)[C@H](CCCCN)NC(=O)[C@H](CCCCN)NC(=O)[C@H](C)NC(=O)[C@H](CCCCN)NC(=O)[C@H](CCCCN)NC(=O)[C@H](CCCCN)NC(=O)[C@H](C)NC(=O)[C@H](CCCCN)NC(=O)[C@@H](N)CCCCN)C(=O)N[C@@H](CCCCN)C(=O)O` [KKAKKKAKKKAKKKAKKKAKKKAKKKAK], the MIC in assay [10] was 19.6 µM (≈ 63 µg/mL); in [11] it was at least 39 µM; in assay [12], over 78 µM; in assay [14] it was 13.7 µM (≈ 43.8 µg/mL).

In the case of `CC(C)C[C@H](NC(=O)CNC(=O)[C@H](Cc1c[nH]c2ccccc12)NC(=O)CNC(=O)[C@H](CC(C)C)NC(=O)[C@H](CC(C)C)NC(=O)[C@H](CCCCN)NC(=O)[C@@H](N)CCCCN)C(=O)N[C@@H](CC(C)C)C(=O)N[C@@H](CCCCN)C(=O)N[C@@H](CCCCN)C(N)=O` [KKLLGWGLLKK], the MIC in assay [15] was at least 128 µM; in assay [16], at least 128 µM; in [2], over 128 µM; in the assay with Escherichia coli K88, at least 64 µM; in assay [17], at least 128 µM; in [3], over 128 µM. Besides, the MIC was at least 128 µM in assay [18]; over 128 µM in assay [5]; over 128 µM in assay [6]; at least 128 µM in [19]; over 128 µM in assay [7]; over 128 µM in [20]. The MIC was at least 128 µM in assay [21], over 128 µM in assay [22], at least 64 µM in [8] and at least 128 µM in [23].

With `CC(C)C[C@H](NC(=O)[C@H](Cc1c[nH]c2ccccc12)NC(=O)[C@H](CC(C)C)NC(=O)[C@@H](NC(=O)[C@H](CC(C)C)NC(=O)[C@H](CCCCN)NC(=O)[C@@H](N)CCCCN)[C@@H](C)O)C(=O)N[C@H](C(=O)N[C@@H](CC(C)C)C(=O)N[C@@H](CCCCN)C(=O)N[C@@H](CCCCN)C(N)=O)[C@@H](C)O` [KKLTLWLTLKK], the MIC in assay [15] was at least 32 µM; in assay [16] it was 8 µM (≈ 11 µg/mL); in [2], 32 µM (≈ 43.9 µg/mL); with Escherichia coli K88 it was 2 µM (≈ 2.74 µg/mL); in assay [17], at least 128 µM; in assay [3] it was 32 µM (≈ 43.9 µg/mL). In addition, the MIC was at least 128 µM in assay [18]; 8 µM (≈ 11 µg/mL) in assay [5]; 32 µM (≈ 43.9 µg/mL) in [6]; 8 µM (≈ 11 µg/mL) in [19]; 16 µM (≈ 21.9 µg/mL) in assay [20]; at least 32 µM in [21]. Further, the minimum inhibitory concentration (MIC) amounted to 128 µM (≈ 175 µg/mL) in assay [22], 2 µM (≈ 2.74 µg/mL) in [8] and 16 µM (≈ 21.9 µg/mL) in assay [23].

As to `CC[C@H](C)[C@H](NC(=O)[C@H](CCCCN)NC(=O)[C@@H](NC(=O)[C@@H](NC(=O)[C@H](CO)NC(=O)[C@H](CC(N)=O)NC(=O)[C@@H](NC(=O)[C@H](CC(N)=O)NC(=O)[C@@H](N)CCCCN)C(C)C)[C@@H](C)CC)C(C)C)C(=O)N[C@@H](CCC(N)=O)C(=O)N[C@@H](C)C(=O)N[C@@H](Cc1ccccc1)C(=O)N[C@@H](Cc1ccccc1)C(=O)N[C@@H](CCCN=C(N)N)C(=O)N[C@@H](C)C(=O)N[C@@H](CCCN=C(N)N)C(=O)N[C@@H](CCCCN)C(=O)N[C@@H](C)C(=O)N[C@@H](CCC(N)=O)C(=O)N[C@@H](CC(=O)O)C(=O)N[C@@H](CC(=O)O)C(=O)N[C@@H](Cc1ccc(O)cc1)C(=O)N[C@@H](CCCN=C(N)N)C(=O)O` [KNVNSIVKIQAFFRARKAQDDYR], the MIC in assay [7] amounted to 3.54 µM (≈ 9.8 µg/mL); in assay [24], 4.7 µM (≈ 13 µg/mL); in assay [25], 30.3 µM (≈ 84 µg/mL).

Consider `NC(=O)[C@H](CCCN=C(N)N)NC(=O)[C@H](Cc1ccccc1)NC(=O)[C@H](Cc1ccccc1)NC(=O)[C@H](CCCN=C(N)N)NC(=O)[C@H](CCCN=C(N)N)NC(=O)[C@H](Cc1ccccc1)NC(=O)[C@H](CCCN=C(N)N)NC(=O)[C@H](CCCN=C(N)N)NC(=O)[C@H](Cc1ccccc1)NC(=O)[C@H](Cc1ccccc1)NC(=O)[C@@H](N)CCCN=C(N)N` [RFFRRFRRFFR], for which the minimum inhibitory concentration (MIC) in [26] was 2 µM (≈ 3.38 µg/mL); in [27], at least 64 µM; in assay [2], 4 µM (≈ 6.76 µg/mL); in assay [28], 2 µM (≈ 3.38 µg/mL); in assay [3], 4 µM (≈ 6.76 µg/mL); in [6], 8 µM (≈ 13.5 µg/mL). Further, the MIC in [24] was 4 µM (≈ 6.76 µg/mL); against Escherichia coli 1005 it was 8 µM (≈ 13.5 µg/mL); in [22] it was 4 µM (≈ 6.76 µg/mL); against Candida albicans it was 5.66 µM (≈ 9.56 µg/mL); in assay [29], 4 µM (≈ 6.76 µg/mL).

With `CC(C)C[C@H](NC(=O)[C@H](CC(C)C)NC(=O)[C@H](CCCN=C(N)N)NC(=O)[C@H](CCCN=C(N)N)NC(=O)[C@H](CC(C)C)NC(=O)[C@H](CCCN=C(N)N)NC(=O)[C@H](CCCN=C(N)N)NC(=O)[C@H](CC(C)C)NC(=O)[C@H](CC(C)C)NC(=O)[C@@H](N)CCCN=C(N)N)C(=O)N[C@@H](CCCN=C(N)N)C(N)=O` [RLLRRLRRLLR], the MIC in [26] was 2 µM (≈ 3.04 µg/mL); in assay [27], 8 µM (≈ 12.2 µg/mL); in assay [2], 8 µM (≈ 12.2 µg/mL); in assay [28] it was 4 µM (≈ 6.08 µg/mL); in [3] it was 4 µM (≈ 6.08 µg/mL); in [6], 4 µM (≈ 6.08 µg/mL). For the same compound, the minimum inhibitory concentration (MIC) was 8 µM (≈ 12.2 µg/mL) in assay [24]; 4 µM (≈ 6.08 µg/mL) against Escherichia coli 1005; 8 µM (≈ 12.2 µg/mL) in assay [22]; 5.66 µM (≈ 8.6 µg/mL) with Candida albicans; 8 µM (≈ 12.2 µg/mL) in assay [29].
